According to ChEMBL document CHEMBL1201862, “PubChem BioAssay data set” (2004):
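48-hour exposure; five concentrations; linearly interpolated endpoints. At the GI50, growth is halved.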 Active and inactive are the calls of the source. Rule as the data show it: active = GI50 up to about 1.1 µM and inactive = higher.

What was measured:
Experiment in all cases: NCI-60 cell line screen, 48 h
[1] = system: NCI-H460
[2] = system: LOX IMVI
[3] = system: HCT-116
[4] = system: NCI/ADR-RES
[5] = system: SNB-75
[6] = system: Hs-578T
[7] = system: OVCAR-3
[8] = system: TK-10
[9] = system: RPMI-8226
[10] = system: CCRF-CEM
[11] = system: HL-60
[12] = system: MDA-MB-231
[13] = system: SF-268
[14] = system: CAKI-1
[15] = system: U-251
[16] = system: SK-OV-3
[17] = system: T47D
[18] = system: HOP-92

Measured: GI50

CCOC(=O)CC(=O)NC1CC2CCC1(C)C2(C)C (centres undefined)
inactive: [1] > 100 µM | [2] > 100 µM | [3] > 100 µM | [4] > 100 µM | [5] > 100 µM | [6] > 100 µM | [7] > 100 µM | [8] > 100 µM | [9] > 100 µM | [10] > 100 µM | [11] > 100 µM | [12] > 100 µM | [13] > 100 µM | [14] > 100 µM | [15] > 100 µM | [16] > 100 µM

CC[n+]1[b-](C(C)(C)C)n(/N=C(\C)C(C)(C)C)[b-](C(C)(C)C)[n+]1CC
inactive: [1] > 100 µM | [2] > 100 µM | [3] > 100 µM | [4] 87.1 µM | [5] > 100 µM | [6] > 100 µM | [7] > 100 µM | [8] > 100 µM | [10] > 100 µM | [12] > 100 µM | [13] > 100 µM | [14] > 100 µM | [17] > 100 µM | [15] > 100 µM

COC(C)(C)C1=CCC(C)CC1 (centres undefined)
inactive: [1] > 100 µM | [3] > 100 µM | [5] 66.1 µM | [6] > 100 µM | [7] > 100 µM | [8] > 100 µM | [9] > 100 µM | [11] > 10 µM | [18] > 100 µM | [13] > 100 µM | [14] > 100 µM | [15] > 100 µM | [16] > 100 µM

O=C(CN1CCCC1=O)CS(=O)(=O)c1ccccc1
inactive: [1] > 100 µM | [2] > 100 µM | [3] > 100 µM | [4] > 100 µM | [5] > 100 µM | [6] > 100 µM | [7] > 100 µM | [8] > 100 µM | [9] > 100 µM | [10] > 100 µM | [11] > 100 µM | [13] > 100 µM | [15] > 100 µM

CC1=NC(=Cc2ccc([N+](=O)[O-])cc2)C(=O)N1n1c(-c2ccccc2)nc2ccccc2c1=O
inactive: [2] 34.7 µM | [3] 32.1 µM | [5] 15.7 µM | [6] 50.2 µM | [8] 80.7 µM | [9] 22.3 µM | [10] 32.8 µM | [11] 32.3 µM | [12] 63.7 µM | [13] 37.8 µM | [14] 35.2 µM | [17] 39.8 µM | [16] 68.9 µM

O=C1CN(c2ccc(Cl)cc2)C(=O)CN1NCNN1CC(=O)N(c2ccc(Cl)cc2)CC1=O
inactive: [1] > 100 µM | [3] > 100 µM | [5] > 100 µM | [6] > 100 µM | [7] > 100 µM | [8] > 100 µM | [9] > 100 µM | [10] > 100 µM | [11] > 100 µM | [18] > 100 µM | [13] > 100 µM | [14] > 100 µM | [15] > 100 µM | [16] > 100 µM

COc1ccc(OC)c(CNc2ccc(C(=O)O)cc2)c1
inactive: [2] > 100 µM | [3] > 100 µM | [4] > 100 µM | [5] > 100 µM | [6] > 100 µM | [7] > 100 µM | [8] > 100 µM | [9] > 100 µM | [10] > 100 µM | [11] > 100 µM | [18] > 100 µM | [12] > 100 µM | [13] > 100 µM | [14] > 100 µM | [15] > 100 µM | [16] > 100 µM
